Laboratory results as given in US20150111896A1, “HEMATOPOIETIC PROTECTION AGAINST CHEMOTHERAPEUTIC COMPOUNDS USING SELECTIVE CYCLIN-DEPENDENT KINASE 4/6 INHIBITORS” (The University of North Carolina at Chapel Hill, priority 2008, published 2015).
“Also recorded” adds a separate entry of the source. Where two headings read alike, the source gives them in different places.

Legend:
[1] = tested on: human melanoma cells lacking INK4a/ARF (WM2664); assay: Cell cycle analysis (BrdU and propidium iodide, flow cytometry); format: cell-based; details: WM2664 (CDK4/6-dependent), 24 hours treatment
Protocol: (§1) Cells were cultured in DMEM+10% FBS.
(§2) Cell cycle analysis: Cell cycle analysis was performed using BrdU and propidium iodide (both from BD Biosciences Pharmigen, San Jose, Calif., United States of America) following the manufacturer's protocol. Cells were treated for 24 hours with a test compound at a desired dose prior to 15 minutes BrdU pulse, cell harvesting, fixation, staining, and analysis by flow cytometry.
(§3) Histograms of dose-response curves of PD332991 and 2BrIC in HS68, WM2664 and A2058 cells were analyzed using Mod-Fit™ software from Verity Software House (Topsham, Me., United States of America).

[2] = tested on: telomerized human diploid fibroblast (tHDF) cells (HS68); assay: as above; format: cell-based; details: HS68 (CDK4/6-dependent), 24 hours treatment
Protocol: as §1, §2, §3

[3] = tested on: human RB-null melanoma cells (A2058); assay: γH2AX assay (DNA damage, flow cytometry); format: cell-based; details: 16 hours pretreatment, then 8 hours Carbo, Etop or Dox
Excerpt: (§4) Reduction in DNA damage effected by the test compound or maintenance of cell viability effected by the test compound in cells treated with cytotoxic compounds can be assessed in any suitable manner. For example, DNA damage in cell populations can be assessed by performing a gamma-H2AX assay as described further herein below. Mammalian cells respond to agents that introduce DNA double-stranded breaks with the immediate and substantial phosphorylation of histone H2AX. Thus, detection of the phosphorylated H2AX, termed gamma-H2AX (γH2AX), using commercially available antibodies, can serve as a measure of DNA damage in cells.
as §1
(§5) γH2AX assay: For γH2AX assay, cells were treated with a dose response of PD332991 or 2BrIC for 24 hours. Cells were fixed, permeabilized, and stained with anti-γH2AX antibody as per γH2AX Flow Kit (Millipore, Billerica, Mass., United States of America). γH2AX levels were assessed by flow cytometry.

[4] = tested on: human melanoma cells lacking INK4a/ARF (WM2664); assay: γH2AX assay (DNA damage, flow cytometry); format: cell-based; details: 16 hours pretreatment; for protection from doxorubicin-, carboplatin- or etoposide-induced DNA damage (gamma-H2AX): then 8 hours Carbo, Etop or Dox
Excerpt: as §4, §1, §5

[5] = tested on: telomerized human diploid fibroblast (tHDF) cells (HS68); assay: γH2AX assay (DNA damage, flow cytometry); format: cell-based; details: 16 hours pretreatment, then 8 hours Carbo, Etop or Dox
Excerpt: as §4, §1, §5

[6] = tested on: hematopoietic stem and progenitor cells (HSPC); assay: In vivo pharmacodynamic assay (BrdU incorporation, Ki67) in bone marrow; parameters: species or system mice; details: two doses 300 mg/kg oral gavage, 2 hours prior to and at BrdU injection; relative to formulation alone; 300 mg/kg
Protocol: PD0332991: For HSPC proliferation experiments, mice received daily oral gavage with PD0332991 150 mg/kg for 2 days with 1 mg BrdU intraperitoneal injection (i.p.) every 6 hours for 24 hours prior to sacrifice.
2BrIC: For HSPC proliferation experiments, mice were treated with two doses of 2-bromo-12,13-dihydro-5H-indolo[2,3-a]pyrrolo[3,4-c]carbazole-5,7(6H)-dione (2BrIC) 300 mg/kg oral gavage or vehicle control. 2BrIC was solubilized for oral gavage using formulation #6 from the Hot Rod formulation kit (Pharmatek, Inc., San Diego, Calif., United States of America). 2BrIC was administered 2 hours prior to BrdU administration and readministered at the time of the BrdU 1 mg i.p. injection. After BrdU+/−2BrIC treatment for the indicated times, the mice were sacrificed and bone marrow harvested for immunophenotyping, and BrdU analysis.
Bone marrow (BM) was harvested from femurs of mice, pooled, and centrifuged to purify bone marrow mononuclear cells (BM-MNCs). Cells were then incubated for 5 minutes in ACK buffer to lyse red blood cells. All antibodies were from BD Pharmingen (San Jose, Calif., United States of America) unless otherwise indicated. Purified BM-MNCs were incubated with mouse lineage mixture biotin conjugated antibody, followed by streptavidin-FITC. Cells were then stained with Sca-1-PE-Cy7 and c-kit-APC-alexa750 antibodies. Cell viability was assessed using LIVE/DEAD Aqua Dead Cell Stain Kit (Invitrogen Corporation, Carlsbad, Calif., United States of America). For BrdU incorporation assay, the cells were fixed, permeablized, and stained with an APC BrdU Flow Kit according to the manufacturer's instruction. In all experiments, PE-Cy7, FITC, APC-alexa750, and the Aqua Dead cell stain isotype controls were included as appropriate. Flow cytometric analysis was performed using a CyAn ADP (Dako, Glostrup, Denmark). For each sample, a minimum of 500,000 cells was analyzed and the data were analyzed using FlowJo software (Tree Star, Ashland, Oreg., United States of America).

[7] = tested on: mice exposed to chemotherapeutic agents; assay: Myelosuppression assay: weekly complete blood counts; format: in vivo; details: 150 mg/kg oral gavage, Carbo 100 mg/kg i.p., blood on sixth day
Protocol: PD0332991: In the carboplatin experiments, mice were treated with a single dose of PD0332991 150 mg/kg oral gavage or vehicle control followed by carboplatin 100 mg/kg IP injection. In the doxorubicin experiments, mice were treated with a PD0332991 150 mg/kg by oral gavage or vehicle control one hour before doxorubicin 10 mg/kg by IP injection on day 0 and then repeated on day 7.
2BrIC: Mice were treated with a single dose of carboplatin 100 mg/kg by IP injection and two doses of 2BrIC 150mg/kg oral gavage or vehicle control. Mice were pretreated with 2BrIC two hours prior to carboplatin administration and then readministered a second dose of 2BrIC at the time of the carboplatin injection.
Baseline complete blood count (CBC) analysis were performed on a subset of mice prior to drug administration. Following drug administration (chemotherapy+/−indicated CDK4/6 inhibitor or control), mice were monitored weekly for the presence of myelosuppression by CBC analysis. CBC analysis was performed using BD Microtainer tubes with K2E (K2EDTA), 40 μL of blood was collected by tail vein nick. Blood was analyzed using a HESKA CBC-Diff Veterinary Hematology System. CBC analysis included measurement of white blood cells, lymphocytes, granulocytes, monocytes, hematocrit, red blood cells, hemoglobin, platelets, and other common hematological parameters.

[8] = tested on: human melanoma cells lacking INK4a/ARF (WM2664); assay: Cell proliferation assay (WST-1 or CellTiter-Glo) after chemotherapeutic; details: for protection from chemotherapy-induced cytotoxicity (cell proliferation assays): WM2664 (CDK4/6-dependent), pretreatment prior to carboplatin, etoposide or doxorubicin
Protocol: (§7) In some embodiments, cell viability is assessed by performing a assay using 2-(4-iodophenyl)-3-(4-nitrophenyl)-5-(2,4-disulfophenyl)-2H-tetrazolium monosodium salt (WST-1), such as described further hereinbelow. In the WST-1 assay, WST-1 is cleaved by a mitochondrial reductase present in viable cells to form a colored product (i.e., formazan) that can be detected by measuring absorbance at a particular wavelength (e.g., 420-480 nm). […] The CellTiter-Glo® assay (CTG assay; Promega, Madison, Wis., United States of America) measures cell viability by measuring ATP concentration in cell lysate.
(§8) Cell lines: Telomerized human diploid fibroblast (tHDF) cells (HS68) were cultured in Dulbecco's Modified Eagle Medium (DMEM) +10% fetal bovine serum (FBS) with any additional compounds. The same conditions were used for A2058 and WM2664, human melanoma cell lines with known RB-pathway mutations: A2058 is RB-null, whereas WM2664 lacks INK4a/ARF. Thus, A2058 cells are CDK4/6-independent, while WM2664 cells are CDK4/6-dependent. Cells were cultured in DMEM+10% FBS.
(§9) Cell proliferation assays: Cell proliferation assays were performed by seeding 1×10^3 cells per well in a 96-well tissue culture plate in 100 μL of growth medium. Cells were treated as indicated with compound from Table 1 and doxorubicin, etoposide or carboplatin. Following treatment, cells were allowed to recover for 7 days in normal growth medium. At the end of the recovery period, cell number was quantified using the VVST-1 cell proliferation assay (TaKaRa Bio USA, Madison, Wis., United States of America) or the CellTiter-Glo® assay (CTG; Promega, Madison, Wis., United States of America). Data is presented as absorbance at 450 nm for the WST assays or Relative Light Units (RLU) for the CTG assays.

[9] = tested on: telomerized human diploid fibroblast (tHDF) cells (HS68); assay: as above; details: for chemoprotective effects against doxorubicin, carboplatin, etoposide (cell viability, CellTiter-Glo): 16 hour pretreatment, DOX 122 nM, Carbo 50 μM or Etop 2.5 μM 8 hours
Protocol: as §7, §8, §9

[10] = tested on: human RB-null melanoma cells (A2058); assay: as above; details: for protection from chemotherapy-induced cytotoxicity (cell proliferation assays): A2058 (CDK4/6-independent), pretreatment prior to carboplatin, etoposide or doxorubicin
Protocol: as §7, §8, §9

[11] = tested on: RB-null human melanoma cells (A2058); assay: TOXILIGHT assay (adenylate kinase release); format: cell-based; details: 16 hours treatment, then Carbo 50 μM, DOX 122 nM or Etop 2.5 μM 8 hours
Protocol: (§6) Cellular cytotoxicity was assessed using the TOXILIGHT™ Bioassay kit (Lonza, Basel, Switzerland) which measures cytolysis by quantifying the release of adenylate kinase into the culture media. […] 100 μL of TOXILIGHT™ reagent is added and incubated for 5 minutes and read in a luminometer at 1 second/well.

[12] = tested on: human melanoma cells lacking INK4a/ARF (WM2664); assay: TOXILIGHT assay (adenylate kinase release); format: cell-based; details: 16 hours treatment, then Carbo 50 μM, DOX 122 nM or Etop 2.5 μM 8 hours
Protocol: as §6

[13] = tested on: HS68 cells; assay: TOXILIGHT assay (adenylate kinase release); format: cell-based, human; details: pretreatment, then Carbo 50 μM, DOX 122 nM or Etop 2.5 μM 8 hours
Protocol: as §6

[14] = tested on: human RB-null melanoma cells (A2058); assay: Cell cycle analysis (BrdU and propidium iodide, flow cytometry); format: cell-based; details: A2058 (RB-null, CDK4/6-independent), 24 hours treatment
Protocol: as §1, §2, §3

[15] = tested on: telomerized human diploid fibroblast (tHDF) cells (HS68)
Protocol: as §7, §8, §9

O=C1NC(=O)c2c1c1c3ccccc3[nH]c1c1[nH]c3cc(Br)ccc3c21 [Compound 2BrIC, 2-bromo-12,13-dihydro-5H-indolo[2,3-a]pyrrolo[3,4]-carbazole-5,6-dione]
cell cycle effect [1]: strong, clean and reversible G1-arrest | cell cycle effect [2]: strong, clean and reversible G1-arrest | protection from doxorubicin-, carboplatin- or etoposide-induced DNA damage (gamma-H2AX) [3]: inability | protection from doxorubicin-, carboplatin- or etoposide-induced DNA damage (gamma-H2AX) [4]: attenuated γH2AX staining | protection from carboplatin-induced DNA damage (gamma-H2AX positive cells) ([4]; then 8 hours carboplatin): ability | protection from doxorubicin-induced DNA damage (gamma-H2AX positive cells) ([4]; then 8 hours doxorubicin): ability | protection from etoposide-induced DNA damage (gamma-H2AX positive cells) ([4]; then 8 hours etoposide): ability | protection from doxorubicin-, carboplatin- or etoposide-induced DNA damage (gamma-H2AX) [5]: attenuated γH2AX staining; also recorded: ability | incorporation of BrdU into Lin−Kit+Sca1+ cells (MPP) [6]: inhibited; also recorded: clearly reducing proliferation | protection of blood cell counts from carboplatin [7]: provides protection of red blood cells and hemoglobin | protection from chemotherapy-induced cytotoxicity (cell proliferation assays) [8]: significant protection | protection from chemotherapy-induced cytotoxicity (cell proliferation assays) ([9]; HS68 (CDK4/6-dependent), pretreatment prior to carboplatin, etoposide or doxorubicin): significant protection | protection from chemotherapy-induced cytotoxicity (cell proliferation assays) [10]: not | protection from doxorubicin-induced cytotoxicity (cell viability, WST-1 assay) ([10]; A2058, absorbance at 450 nm, 7 days recovery): inability

CN[C@@H]1C[C@H]2O[C@@](C)([C@@H]1OC)n1c3ccccc3c3c4c(c5c6ccccc6n2c5c31)C(=O)NC4 [staurosporine]
cell cycle effect [2]: substantially pure G1 arrest | cell cycle effect ([2]; listed as Staurosporine): appears to induce G1 cell cycle arrest | protection from doxorubicin-, carboplatin- or etoposide-induced DNA damage (gamma-H2AX) [4]: does not protect | protection from doxorubicin-, carboplatin- or etoposide-induced DNA damage (gamma-H2AX) ([4]; listed as Staurosporine): does not appear to protect | protection from doxorubicin-, carboplatin- or etoposide-induced DNA damage (gamma-H2AX) [5]: does not protect | protection from doxorubicin-, carboplatin- or etoposide-induced DNA damage (gamma-H2AX) ([5]; listed as Staurosporine): does not appear to protect | effect on chemotherapy-induced cytotoxicity (adenylate kinase release) [11]: enhances chemotherapy-induced cytotoxicity in a cyclin-dependent kinase 4/6 (CDK4/6)-independent manner | effect on chemotherapy-induced cytotoxicity (adenylate kinase release) [12]: enhances chemotherapy-induced cytotoxicity in a cyclin-dependent kinase 4/6 (CDK4/6)-independent manner | effect on chemotherapy-induced cytotoxicity (adenylate kinase release) [13]: enhances chemotherapy-induced cytotoxicity in a cyclin-dependent kinase 4/6 (CDK4/6)-independent manner | chemoprotective effects against doxorubicin, carboplatin, etoposide (cell viability, CellTiter-Glo) ([9]; HS68, viability after 7 days): does not provide protection | chemoprotective effects against doxorubicin, carboplatin, etoposide (cell viability, CellTiter-Glo) ([9]; HS68, viability after 7 days, listed as Staurosporine): does not appear to protect

CCC(CO)Nc1nc(NCc2ccccc2)c2ncn(C(C)C)c2n1 (stereo not drawn) [Roscovitine]
cell cycle effect [14]: did not induce a clean G1 arrest | cell cycle effect [1]: does not induce G1 arrest | cell cycle effect ([1]; listed as roscovitine): did not induce a clean G1 arrest | cell cycle effect [2]: does not induce G1 arrest | cell cycle effect ([2]; listed as roscovitine): did not induce a clean G1 arrest | protection from chemotherapy-induced cytotoxicity (cell proliferation assays) [15]: failed to protect | protection from chemotherapy-induced cytotoxicity (cell proliferation assays) [8]: failed to protect | chemoprotective effects against doxorubicin (cell viability, CellTiter-Glo) ([8]; WM2664, 16 hours pretreatment, DOX 122 nM 8 hours, viability after 7 days): absence of chemoprotective effects | chemoprotective effects against doxorubicin (cell viability, CellTiter-Glo) ([9]; HS68, 16 hours pretreatment, DOX 370 nM 8 hours, viability after 7 days): absence of chemoprotective effects | protection from chemotherapy-induced cytotoxicity (cell proliferation assays) [10]: failed to protect | chemoprotective effects against doxorubicin (cell viability, CellTiter-Glo) ([10]; A2058, 16 hours pretreatment, DOX 370 nM 8 hours, viability after 7 days): absence of chemoprotective effects
